The text below walks through data of patent US10327423B2, “Antimicrobial compounds and compositions, and uses thereof” (Akeso Biomedical, Inc., priority 2014, dated 2019).

Entries after “also recorded” stand apart in the source; their conditions may differ.

The subject of test [1] is Staphylococcus aureus ATCC 25923. Kind of test: Biofilm formation on plastic coated UV beads. Type of test: cell-based. To be noted: different concentrations of Fe-QA; T=24 h. As to the method:
(§1) Bacteria (Enterococcus faecalis NCTC 12697, Staphylococcus epidermidis F1513 and Staphylococcus aureus ATCC 25923) were grown on Brain heart infusion (BHI) passaged to new medium either containing Fe-QA or alone. Growth suspensions were prepared at 0.0001 OD/ml and then allowed to grow at 37° C. under normal atmospheric conditions for 24 h in BHI with plastic coated UV beads (Lascells). […], 10 μl suspension was serially diluted 10 fold to 10-3, 10-4, 10-5, 10-6, 10-7, 10-8. For each dilution, 10 μl was spotted on BHI agar plates and colonies counted after 24 h. The beads were also removed washed in PBS before adding to 1 ml PBS. After vortex mixing, 10 μl of the cell suspension was serially diluted as above and cell counts carried out.
The effect of Fe-QA on biofilm formation by S. aureus was tested as described in the materials and methods of Example 1.

Test [2] concerns Psuedomonas aeruginosa (PAO1N). The test is described as follows: Growth (OD600) in LB with Amikacin, tolerance to antibiotic. The test is classed as cell-based, Pseudomonas aeruginosa. As to conditions: 34, 100, 200 and 340 μM of FeQ or FePhe; Amikacin 10 µg/ml; 17.5 hours at 37° C. As to the method: To investigate effects upon antibiotic resistance, a laboratory strain of Psuedomonas aeruginosa (PAO1N) and a mixed population of clinical isolates (PAO Mixed) were incubated in Luria-Bertani (LB) media alone, or with different concentrations (34 μM, 100 μM, 200 μM and 340 μM) of FeQ or FePhe.
Each of the different media, bar one control, contained 10 µg/ml of the aminoglycoside antibiotic Amikacin.
10 μl of the bacterial strains were added into each well of a 96-well micro-titer plate, before 290 μl of the relevant media was added to wells. Each different condition was repeated in sextuplicate.
The plate was incubated at 37° C. within a micro-titer plate reader for 17.5 hours, with the OD600 read every 30 minutes.

Test [3] relates to Campylobacter jejuni NCTC 11168 (wildtype and strain carrying a kanamycin resistance gene). The test is described as follows: Patch test on growth plates with Fe-QA and kanamycin. The test is classed as cell-based. From the text: The wildtype C. jejuni grew normally, and was not affected by FeQ. A patch was also immersed in a solution of kanamycin and Fe-QA, and placed on a growth plate of wildtype C. jejuni. The growth of C. jejuni was impacted showing that wildtype C. jejuni is sensitive to the presence of kanamycin.
The patch experiments were repeated with a Campylobacter jejuni NCTC 11168 strain carrying a kanamycin resistance gene wherein patches were immersed in (i) kanamycin only, (ii) Fe-QA only, and (iii) kanamycin and Fe-QA. The growth of the C. jejuni strain carrying the kanamycin resistance gene was not impacted by the patches immersed in (i) kanamycin and (ii) Fe-QA, however, the growth was impacted by the patch that was immersed in both kanamycin and Fe-QA.

Test [4] deals with Pseudomonas aeruginosa (PAO-1 Clinical). Kind of test: Growth curve of antibiotic resistant clinical isolate with kanamycin and FeQ. Type of test: cell-based. As to conditions: kanamycin and FeQ added to growth media. The protocol:
The impact on the growth curve of an antibiotic resistant clinical isolate of Pseudomonas aeruginosa (PAO-1 Clinical) grown in the presence of kanamycin and FeQ versus the clinical isolate grown in the presence of (i) FeQ, (ii) kanamycin or (iii) without addition of FeQ or kanamycin (control) was assessed.

In test [5] the test system is PAO-1 strains of Pseudomonas aeruginosa. Kind of test: Biofilm formation on contact lenses (ESEM). As to conditions: FeQ 340 μM in LB; 37° C.; 24 hours. Type of test: cell-based. The protocol: To investigate biofilm formation on the contact lens, clinically determined PAO-1 strains of Pseudomonas aeruginosa were incubated with the lenses in either Luria-Bertani Media (LB) or LB with a final concentration of 340 μM FeQ at 37° C. for 24 hours in a non-shaking incubator. The lenses were then washed 6 times with PBS+0.05% Tween, before being stored overnight in PBS+0.05% Tween. In preparation for the ESEM, formaldehyde was added to a final concentration of 1% and incubated for 10 minutes in order to inactivate the bacteria. The lenses were then washed 4 times with PBS+0.05% Tween, and immediately before analysis the lenses were washed a further two times with distilled water.

The test system of test [6] is Uropathogenic E. coli UPEC-536. The test is described as follows: Planktonic growth rate in RPMI-1640. As to conditions: Fe-QA 100 μM, 24 hours. The test is classed as cell-based, Escherichia coli. The protocol: The growth rate of Uropathogenic E. coli UPEC-536 in RPMI-1640 media over a period of 24 hours was compared to the growth rate of UPEC in RPMI-1640 media, but in the presence of 100 μM Fe-QA. The growth rate of Pseudomonas aeruginosa in RPMI-1640 media was also compared to the growth rate of Pseudomonas aeruginosa in RPMI-1640 media, but in the presence of 100 μM Fe-QA.

For test [7], the system named is Staphylococcus epidermidis F1513. Kind of test: Biofilm formation on plastic coated UV beads. To be noted: different concentrations of Fe-QA; T=24 h. The test is classed as cell-based. As to the method:
as §1
The effect of Fe-QA on biofilm formation by S. epidermidis F1513 was tested as described in the materials and methods of Example 1.

For the next test, the system named is H. pylori CCUG 17875. Kind of test: H. pylori attachment to human gastric tissue sections (FITC-labelled bacteria). The test is classed as cell-based, Helicobacter pylori. As to conditions: Fe-QA 1 mM and 0.2 mM; 1 hour at room temperature. As to the method:
The ability of H. pylori CCUG 17875 to bind to samples of human gastric tissue in the presence of Lewis b antigen, Le^b, and two concentrations of Fe-QA (1 mM and 0.2 mM) was measured. Binding was quantified by fluorescence using H. pylori that had been labeled with fluorescein using FITC (fluorescein isothiocyanate), and human gastric tissue that was embedded in […]. The bacteria were suspended in blocking buffer (1% BSA in PBS) and applied to re-hydrated histo-sections of human gastric tissue. Binding was assessed microscopically, and quantified as the average number of bacteria bound to the tissue.

For the compound `O=C1[O][Fe]23([O]C(=O)[C@]4(C[C@@H](O)[C@H](O)[C@H](O)C4)[O]2)([O]C(=O)[C@]2(C[C@@H](O)[C@H](O)[C@H](O)C2)[O]3)[O][C@@]12C[C@@H](O)[C@H](O)[C@H](O)C2` [FeQ, a complex of quinic acid with Fe III], the “biofilm formation on plastic coated UV beads” value in test [1] and in test [7] was “inhibited” each time. Also, the “tolerance to the aminoglycoside Amikacin (OD600 growth)” value in test [2] is “reducing tolerance”. The “growth on plate around patch” value is reported as “not impacted” in test [3] (strain carrying kanamycin resistance gene, patch with Fe-QA only); “retarded; also recorded: impacted” in test [3] (strain carrying kanamycin resistance gene, patch with kanamycin and Fe-QA); “not affected” in test [3] (wildtype C. jejuni (no kanamycin resistance gene), patch with Fe-QA alone); “impacted” in test [3] (wildtype C. jejuni, patch with kanamycin and Fe-QA). For the same compound, the “growth rate versus kanamycin or FeQ alone” value in test [4] is listed as “large reduction in the growth rate”; in test [4] (listed as Fe-QA) it was “retarded”. For the same compound, the “biofilm formation on contact lens (ESEM)” value in test [5] is given as “inhibits biofilm formation”. Also, the planktonic growth rate entry in test [6] was “does not inhibit the growth”. In addition, the “binding of H. pylori to human gastric tissue” value in the test with H. pylori CCUG 17875 is given as “significantly reduced”.
